Consider one molecule from BindingDB's records for doi:10.7270/Q2WS8RN8 (The Scripps Research Institute Molecular Screening Center, 2008).

For this test, the target named is T1, Signal transducer and activator of transcription 1-alpha/beta (Homo sapiens, UniProt P42224).
T1 sequence (P42224 whole entry): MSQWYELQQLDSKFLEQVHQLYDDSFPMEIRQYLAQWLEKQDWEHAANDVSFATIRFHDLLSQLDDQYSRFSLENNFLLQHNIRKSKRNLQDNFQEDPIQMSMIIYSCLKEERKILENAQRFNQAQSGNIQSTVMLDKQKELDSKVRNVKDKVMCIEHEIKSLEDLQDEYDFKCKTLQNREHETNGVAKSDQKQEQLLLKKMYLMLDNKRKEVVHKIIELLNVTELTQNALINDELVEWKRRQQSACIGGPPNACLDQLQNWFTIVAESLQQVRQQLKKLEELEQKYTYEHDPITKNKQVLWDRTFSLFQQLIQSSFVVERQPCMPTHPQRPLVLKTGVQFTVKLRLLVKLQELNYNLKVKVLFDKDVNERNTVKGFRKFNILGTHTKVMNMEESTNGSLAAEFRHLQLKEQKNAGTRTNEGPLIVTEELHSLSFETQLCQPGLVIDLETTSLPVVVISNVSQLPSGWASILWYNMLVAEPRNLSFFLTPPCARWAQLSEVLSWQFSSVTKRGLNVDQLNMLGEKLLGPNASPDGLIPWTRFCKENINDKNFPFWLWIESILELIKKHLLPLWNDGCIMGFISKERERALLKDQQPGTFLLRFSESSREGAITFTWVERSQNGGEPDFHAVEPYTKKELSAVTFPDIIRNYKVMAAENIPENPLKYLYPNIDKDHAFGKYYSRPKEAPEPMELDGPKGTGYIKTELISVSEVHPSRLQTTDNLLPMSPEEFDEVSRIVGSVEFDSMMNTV
As to the kind of experiment: PubChem AID 1396.

In turn, `CCN1C(=O)C(=CNNC(=O)c2ccncc2)C(=O)N(CC)C1=S` [SMR000218837] returned an IC50 of 4.42 µM.
